Here are results for twelve compounds from patent US6288036A, “Bradykinin type peptides” (priority 1993, dated 2001).

*1 amine or outer side, *2 acyl side, *3 side chain or, on linkers, in order; H or OH if unused. Where a SMILES comes first, the peptide text is derived from it. Where no end group is shown, it is not given here. [ ]: non-standard residue; d: D form. The star is where a group is joined. X3 = O=C([C@@H]1C[C@H](Oc2ccc([N+](=O)[O-])cc2)CN1[*:1])[*:2]; X2 = O=C([C@@H]1C[C@H](Oc2ccccc2[N+](=O)[O-])CN1[*:1])[*:2]; Pro(cis-4-OPh) = O=C(O)[C@@H]1C[C@H](Oc2ccccc2)CN1; X1 = O=C([C@@H]1C[C@H](Sc2ccccc2)CN1[*:1])[*:2]; cisHyp = O=C(O)[C@@H]1C[C@H](O)CN1; Hyp = O=C(O)[C@@H]1C[C@@H](O)CN1; Cyclohexylmethyl = C1CCC(C*)CC1; dTic = O=C(O)[C@H]1Cc2ccccc2CN1

One series addresses T1, bradykinin receptor (Cavia porcellus, UniProt O70526).
T1 construct: from tissue; host or cells: guinea pig terminal ileum, washed membrane homogenate
T1 sequence (O70526 1-372): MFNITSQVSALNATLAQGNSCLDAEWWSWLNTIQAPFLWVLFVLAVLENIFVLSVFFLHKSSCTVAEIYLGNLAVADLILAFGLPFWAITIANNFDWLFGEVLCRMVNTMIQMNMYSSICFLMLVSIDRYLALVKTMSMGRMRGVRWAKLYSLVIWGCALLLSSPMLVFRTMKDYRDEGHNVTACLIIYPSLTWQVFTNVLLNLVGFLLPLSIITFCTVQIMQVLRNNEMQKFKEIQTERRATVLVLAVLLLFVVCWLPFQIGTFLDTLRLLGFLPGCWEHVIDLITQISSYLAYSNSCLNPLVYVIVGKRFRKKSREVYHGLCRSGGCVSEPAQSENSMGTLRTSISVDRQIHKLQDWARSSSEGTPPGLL
The experiment in a line: 3H-Bradykinin binding assay, guinea pig terminal ileum homogenate. The settings on record: competition with 3H-bradykinin (~0.3 nM), guinea pig terminal ileum membranes, 90 min ambient temperature. The source says:
Binding of ^3 H-Bradykinin was preformed using the method of D. C. Manning, […], and […]. Pharmacol. Exp. Ther., (1986),237 504. The tissues used in the binding assay were terminal ileum from male Hartley guinea pigs (150-350 g). After dissection, tissues were placed in 20 vol of ice-cold buffer A (25 Mm TES containing 0.2 g/L of 1,10-phenanthroline adjusted to Ph 6.8 with ammonium hydroxide) and homogenized using a Ploytron Tissumizer at setting 6 for 15 sec. The homogenate was centrifuged at 50,000×g for 10 min, the supernatant discarded, and the pellet resuspended in ice-cold buffer A by homogenization with the Polytron. Each tissue was homogenized and centrifuged three times. The final pellet was resuspended in buffer A containing bovine serum albumin (1 g/L) and Bacitracin (0.14 g/L) to a final volume of 170 Ml/g of the original tissue weight. The binding assay consisted of 1 Ml in 12×75 mm polypropylene tubes: 50 uL ^3 H-bradykinin (20,000 dpm, ~0.3 Nm in the final assay volume), […] displacing drug in buffer A, and 750 Ul tissue homogenate. […] Tubes were incubated for 90 min at ambient temperature. The assays were terminated by filtration over Whatman GF/B glass fiber filters that had been pretreated for 2 hours with polyethyleneimine (2 g/L) using a Brandel Tissue Harvester, followed by washing with 4×1 Ml aliquots of ice-cold 50 Mm Tris, Ph 7.4. Filters were dissolved in Ready-Safe Fluor (Beckman) for at least 90 min before quantitation by liquid scintillation spectrometry. Kd values were determined using saturation binding and analysis by […]. Pharmacol. Methods, (1985), 213)], followed by LIGAND [[…], Anal. Biochem., (1980), 220]. Ki values were determined using competitive analysis followed by EBDA and LIGAND. The following test results were obtained.

Series [1] deals with T2, bradykinin receptors on intestinal (ileal longitudinal) smooth muscle (Cavia porcellus, UniProt O70526).
T2 construct: The longitudinal muscle was separated from the underlying circular muscle; from tissue; host or cells: guinea pig ileal longitudinal smooth muscle strips
T2 sequence (O70526 1-372): T1 sequence (O70526 1-372)
The experiment in a line: Bradykinin antagonist activity on guinea pig ileal longitudinal smooth muscle (contraction, Schild analysis). It counts as cell-based. The settings on record: antagonism of bradykinin-induced contraction, guinea pig ileum longitudinal muscle, read-out: pA2 (converted). How it is done:
Determination of Bradykinin Antagonist Activity
Guinea pig intestine was removed and placed in a Petri dish containing Tyrodes solution and cut into 3-4 cm segments. The longitudinal muscle was separated from the underlying circular muscle using a cotton applicator (Paton and Zar, J. Physiol. (1968), 194:13). Muscle strips were connected to isometric force-displacement transducers (Grass or Gould) coupled to a physiograph and placed in tissue baths containing Tyrode's solution at 37° C. Each preparation was suspended under a resting tension of 2 g.
After equilibration of the tissues, appropriate volumes of bradykinin solutions were cumulatively added to the 10 Ml tissue baths to increase the concentration of bradykinin in the bath step-by-step without washing out after each single dose. Higher concentrations were added only after the preceding contraction had reached a steady value. […] Antagonism of bradykinin responses in the presence of antagonist were determined by repeating the cumulative addition procedure for bradykinin after the tissue has been exposed to the antagonist for 5 minutes. Three or four differentconcentrations of antagonist are studied sequentially in the same preparations. Responses were expressed as a percentage of the maximum contraction elicited by bradykinin in the absence of antagonist. pA2 values were calculated by Schild analysis.

For series [2] the following is noted: anesthetized rat, intra-aortic vs intravenous administration; cited from earlier work.
For series [3] the following is noted: cited from earlier work.

`CCO[C@@H]1C[C@@H](C(=O)N[C@@H](CCCNC(=N)N)C(=O)O)N(C(=O)[C@H]2Cc3ccccc3CN2C(=O)[C@H](CO)NC(=O)[C@H](Cc2ccccc2)NC(=O)CNC(=O)[C@@H]2C[C@@H](O)CN2C(=O)[C@@H]2CCCN2C(=O)[C@H](CCCNC(=N)N)NC(=O)[C@H](N)CCCNC(=N)N)C1` [D-Arg-Arg-Pro-4Hyp-Gly-Phe-Ser-D-Tic-(Hydroxyproline trans ethyl ether)-Arg] (H-[dR]RP[Hyp]GFS[dTic][Hyp](Et)R-OH) had a Ki on bradykinin receptor of 5.44 nM. Besides, in series [1], the Kb is 51.3 nM.
At bradykinin receptor, `N=C(N)NCCC[C@@H](N)C(=O)N[C@@H](CCCNC(=N)N)C(=O)N1CCC[C@H]1C(=O)N1C[C@H](O)C[C@H]1C(=O)NCC(=O)N[C@@H](Cc1ccccc1)C(=O)N[C@@H](CO)C(=O)N1Cc2ccccc2C[C@@H]1C(=O)N1C[C@@H](Oc2ccccc2[N+](=O)[O-])C[C@H]1C(=O)N[C@@H](CCCNC(=N)N)C(=O)O` [D-Arg-Arg-Pro-4Hyp-Gly-Phe-Ser-D-Tic-(hydroxyproline cis 2-nitrophenyl ether)-Arg] (H-[dR]RP[Hyp]GFS[dTic][X2]R-OH) showed an inhibition constant (Ki) of 3.76 nM. In addition, the Kb in series [1] was 141 nM.
For `N=C(N)NCCC[C@@H](N)C(=O)N[C@@H](CCCNC(=N)N)C(=O)N1CCC[C@H]1C(=O)N1C[C@H](O)C[C@H]1C(=O)NCC(=O)N[C@@H](Cc1ccccc1)C(=O)N[C@@H](CO)C(=O)N1Cc2ccccc2C[C@@H]1C(=O)N1C[C@@H](Oc2ccc([N+](=O)[O-])cc2)C[C@H]1C(=O)N[C@@H](CCCNC(=N)N)C(=O)O` [D-Arg-Arg-Pro-4Hyp-Gly-Phe-Ser-D-Tic-(hydroxyproline cis 4-nitrophenyl ether)-Arg] (H-[dR]RP[Hyp]GFS[dTic][X3]R-OH), in that order: 3.98 nM and 138 nM.
The compound `N=C(N)NCCC[C@@H](N)C(=O)N[C@@H](CCCNC(=N)N)C(=O)N1CCC[C@H]1C(=O)N1C[C@H](O)C[C@H]1C(=O)NCC(=O)N[C@@H](Cc1ccccc1)C(=O)N[C@@H](CO)C(=O)N1Cc2ccccc2C[C@@H]1C(=O)N1C[C@@H](OCC2CCCCC2)C[C@H]1C(=O)N[C@@H](CCCNC(=N)N)C(=O)O` [D-Arg-Arg-Pro-4Hyp-Gly-Phe-Ser-D-Tic-(hydroxyproline cis cyclohexylmethyl ether)-Arg] (H-[dR]RP[Hyp]GFS[dTic][cisHyp](Cyclohexylmethyl)R-OH) returned a Ki at bradykinin receptor of 13.2 nM.
The compound `CCO[C@H]1C[C@@H](C(=O)N[C@@H](CCCNC(=N)N)C(=O)O)N(C(=O)[C@H]2Cc3ccccc3CN2C(=O)[C@H](CO)NC(=O)[C@H](Cc2ccccc2)NC(=O)CNC(=O)[C@@H]2C[C@@H](O)CN2C(=O)[C@@H]2CCCN2C(=O)[C@H](CCCNC(=N)N)NC(=O)[C@H](N)CCCNC(=N)N)C1` [D-Arg-Arg-Pro-4Hyp-Gly-Phe-Ser-D-Tic-(hydroxyproline cis ethyl ether)-Arg] (H-[dR]RP[Hyp]GFS[dTic][cisHyp](Et)R-OH) had a Ki at bradykinin receptor of 4.15 nM. Besides, the Kb in series [1] was 110 nM.
The compound `N=C(N)NCCC[C@@H](N)C(=O)N[C@@H](CCCNC(=N)N)C(=O)N1CCC[C@H]1C(=O)N1C[C@H](O)C[C@H]1C(=O)NCC(=O)N[C@@H](Cc1ccccc1)C(=O)N[C@@H](CO)C(=O)N1Cc2ccccc2C[C@@H]1C(=O)N1C[C@@H](Oc2ccccc2)C[C@H]1C(=O)N[C@@H](CCCNC(=N)N)C(=O)O` [D-Arg-Arg-Pro-4Hyp-Gly-Phe-Ser-D-Tic-(hydroxyproline cis phenyl ether)-Arg] (H-[dR]RP[Hyp]GFS[dTic][Pro(cis-4-OPh)]R-OH) gave a Ki at bradykinin receptor of 2.51 nM.
As for `N=C(N)NCCC[C@@H](N)C(=O)N[C@@H](CCCNC(=N)N)C(=O)N1CCC[C@H]1C(=O)N1C[C@H](O)C[C@H]1C(=O)NCC(=O)N[C@@H](Cc1ccccc1)C(=O)N[C@@H](CO)C(=O)N1Cc2ccccc2C[C@@H]1C(=O)N1C[C@@H](Sc2ccccc2)C[C@H]1C(=O)N[C@@H](CCCNC(=N)N)C(=O)O` [D-Arg-Arg-Pro-4Hyp-Gly-Phe-Ser-D-Tic-(hydroxyproline cis phenyl thioether)-Arg] (H-[dR]RP[Hyp]GFS[dTic][X1]R-OH), the inhibitory constant (Ki) on bradykinin receptor came out at 0.06 nM. Also, in series [1], the Kb was 11.2 nM.
As to `CCCO[C@H]1C[C@@H](C(=O)N[C@@H](CCCNC(=N)N)C(=O)O)N(C(=O)[C@H]2Cc3ccccc3CN2C(=O)[C@H](CO)NC(=O)[C@H](Cc2cccs2)NC(=O)CNC(=O)[C@@H]2C[C@@H](O)CN2C(=O)[C@@H]2CCCN2C(=O)[C@H](CCCNC(=N)N)NC(=O)[C@H](N)CCCNC(=N)N)C1` [D-Arg-Arg-Pro-4Hyp-Gly-Thi-Ser-D-Tic-(Hydroxyproline cis propyl ether)-Arg], the Ki on bradykinin receptor came out at 1.58 nM. Besides, the Kb in series [1] is 224 nM.
On bradykinin receptor, `N=C(N)NCCC[C@@H](N)C(=O)N[C@@H](CCCNC(=N)N)C(=O)N1CCC[C@H]1C(=O)N1C[C@H](O)C[C@H]1C(=O)NCC(=O)N[C@@H](Cc1cccs1)C(=O)N[C@@H](CO)C(=O)N1Cc2ccccc2C[C@@H]1C(=O)N1C[C@H](OC(=O)Nc2ccccc2)C[C@H]1C(=O)N[C@@H](CCCNC(=N)N)C(=O)O` [D-Arg-Arg-Pro-4Hyp-Gly-Thi-Ser-D-Tic-(Hydroxyproline trans phenyl carbamoyl)-Arg] came in with an inhibition constant (Ki) of 11.5 nM.
Regarding `CCCO[C@@H]1C[C@@H](C(=O)N[C@@H](CCCNC(=N)N)C(=O)O)N(C(=O)[C@H]2Cc3ccccc3CN2C(=O)[C@H](CO)NC(=O)[C@H](Cc2cccs2)NC(=O)CNC(=O)[C@@H]2C[C@@H](O)CN2C(=O)[C@@H]2CCCN2C(=O)[C@H](CCCNC(=N)N)NC(=O)[C@H](N)CCCNC(=N)N)C1` [D-Arg-Arg-Pro-4Hyp-Gly-Thi-Ser-D-Tic-(Hydroxyproline trans propyl ether)-Arg], on bradykinin receptor, affinity was put at a Ki of 4.85 nM. Moreover, the Kb in series [1] was 138 nM.
Compound `CO[C@H]1C[C@@H](C(=O)N[C@@H](CCCNC(=N)N)C(=O)O)N(C(=O)[C@H]2Cc3ccccc3CN2C(=O)[C@H](CO)NC(=O)[C@H](Cc2cccs2)NC(=O)CNC(=O)[C@@H]2C[C@@H](O)CN2C(=O)[C@@H]2CCCN2C(=O)[C@H](CCCNC(=N)N)NC(=O)[C@H](N)CCCNC(=N)N)C1` [D-Arg-Arg-Pro-4Hyp-Gly-Thi-Ser-D-Tic-(hydroxyproline cis methyl ether)-Arg] gave a Ki at bradykinin receptor of 1.83 nM. Further, the Kb in series [1] is 141 nM.
Take “RPPGFSPFR [bradykinin, Arg-Pro-Pro-Gly-Phe-Ser-Pro-Phe-Arg]”: the “destruction on a single passage through the pulmonary circulation” value in series [2] was 98-99%. For the same compound, the “half life in the systemic circulation” value in series [3] is listed as “less than 30 seconds”.

Broadly, the Ki is the equilibrium dissociation constant of an inhibitor or competing ligand from its target. Read a high Ki as lower affinity.
